Measured values published in patent US20060079453A1, “Hla binding peptides and their uses” (priority 2002, published 2006).
pIC50: −log10 of the molar value. Read-outs that look alike come from different tables or passages of the source. No end group written: not given here.

Columns and labels:
HLA-B*4001 = HLA-B*4001 (Homo sapiens, UniProt P01889, A65T/A93T/A95T/D138N/D98Y/E176V/E69K/N87E/Q56L/Q94N/R180L/S121R/S35A/S48T/T167S/V36M/W171L/Y33H/Y91S); assay: biochemical; format: binding
HLA-B*4002 = HLA-B*4002 (Homo sapiens, UniProt P01889, A65T/A93T/A95T/D138N/D201E/D98Y/E176V/E204Q/E69K/K202T/N87E/Q56L/Q94N/R180L/S48T/Y33H/Y91S); assay: biochemical; format: binding
HLA-B*4501 = HLA-B*4501 (Homo sapiens, UniProt P01889, A329T/A65T/A93T/A95T/C349S/D138N/D201E/D98Y/E176V/E187L/E204Q/E69K/H137Y/K202T/L119W/N87E/Q56L/Q94N/R155S/R180D/S121R/S35A/S48T/V127L/V306I/V36M/W191S/Y140L/Y33H/Y91S); assay: biochemical; format: binding
HLA-B*4402 = HLA-B*4402 (Homo sapiens, UniProt P01889, A223V/A65T/A93T/A95T/D201E/D98Y/E176V/E187L/E204Q/E69K/G107R/H137Y/K202T/L105A/L119I/N104T/N87E/Q56L/Q94N/R106L/R155S/R180D/S101N/S121R/S35A/S48T/T118I/V36M/W191S/Y140D/Y91S); assay: biochemical; format: binding
HLA-B*1801 = HLA-B*1801 (Homo sapiens, UniProt P01889, A329T/A93T/A95T/C349S/D201E/D54G/D98Y/E176V/E187T/E204Q/E69T/K202T/Q94N/R155S/R180L/S121R/V306I/Y140S/Y195H/Y33H/Y91S); assay: biochemical; format: binding
HLA-A*2902 = HLA-A*2902 (Homo sapiens, UniProt P04439, A270S/D101N/D185E/E176V/E277Q/E87Q/F33T/G231S/H175R/I121M/I218V/I322F/K168Q/L300P/L318F/M331R/P208A/P217A/Q86L/T323A/T345S/V100A/V358M); assay: MHC molecular binding / Capture assay, IC50: A*2902
HLA-A*3002 = HLA-A*3002 (Homo sapiens, UniProt P04439, D101N/D140H/D185E/E176R/F33S/G80R/H175R/K168Q/Q94H/R138E/R41S/V100E); assay: biochemical; format: binding
HLA-A*2301 = HLA-A*2301 (Homo sapiens, UniProt P04439, D101N/D140Y/D185E/E176V/E190D/F33S/G103R/G107R/H175R/I119L/I121M/I306V/K168Q/K335N/L105A/L300P/N151K/N90K/P307H/Q86E/Q94H/R106L/R138H/R89G/T104I/T345S/V100E/W191G/Y123F); assay: biochemical; format: binding
HLA-A*2402 = HLA-A*2402 (Homo sapiens, UniProt P04439, D101N/D140Y/D185E/E176V/E190D/F33S/G103R/G107R/I119L/I121M/I306V/K335N/L105A/L180Q/L300P/N151K/N90K/Q86E/Q94H/R106L/R138H/R89G/T104I/T345S/V100E/W191G/Y123F); assay: MHC molecular binding / Capture assay, IC50: A*2402

| Sequence | pIC50 (HLA-B*4001) | pIC50 (HLA-B*4002) | pIC50 (HLA-B*4501) | pIC50 (HLA-A*2902) | pIC50 (HLA-A*3002) | pIC50 (HLA-A*2301) | pIC50 (HLA-A*2402) | further results |
| --- | --- | --- | --- | --- | --- | --- | --- | --- |
| AENLWVTVH | 6.31 | 6.82 | 6.92 |  |  |  |  |  |
| AENLWVTVT | 6.02 | 8.11 | 8.00 |  |  |  |  | pIC50 (HLA-B*4402): 5.57 |
| KENLWVTVY | 5.56 | 6.43 | 5.21 |  |  |  |  | pIC50 (HLA-B*1801): 6.74; pIC50 (HLA-B*4402): 6.51 |
| ADLMGYIPL |  |  |  |  |  |  |  | pIC50 (HLA-B*1801; B*1801): < 5.12; pIC50 (HLA-B*4001; B*4001): 6.02; pIC50 (HLA-B*4002; B*4002): 8.33; pIC50 (HLA-B*4402; B*4402): < 4.67; pIC50 (HLA-B*4501; B*4501): < 4.31 |
| AENFWVTVY | 5.86 | 6.27 | 6.54 |  |  |  |  |  |
| AENLWVTDY | 6.03 |  | 6.48 |  |  |  |  | pIC50 (HLA-B*1801): 6.00; pIC50 (HLA-B*4402): 6.72 |
| AENVWVTVY | 5.65 | 6.41 | 6.13 |  |  |  |  |  |
| VYREGNPFGF |  |  |  | 4.95 | 4.66 | 7.04 | 6.71 |  |
| DEIGVIDLY |  |  |  |  |  |  |  | pIC50 (HLA-B*4001; B*4001): < 3.94; pIC50 (HLA-B*4002; B*4002): < 4.11; pIC50 (HLA-B*4402; B*4402): 6.15; pIC50 (HLA-B*4501; B*4501): < 4.31 |
| VYCKTVLEF |  |  |  | 6.21 | 5.94 | 8.33 | 7.30 |  |
| LYVYHTQGY |  |  |  | 6.67 | 6.59 | 5.22 | 5.15 |  |
| KYSKSSIVGW |  |  |  | < 4.16 | < 4.46 | 6.31 | 5.39 |  |
| NYSVYGNTF |  |  |  | 5.04 | 5.59 | 7.54 | 7.55 |  |
| TFGWCFKF |  |  |  | 5.35 | < 4.99 | 6.34 | 5.47 |  |
| AFKDLFVVF |  |  |  | 5.52 | 6.08 | 8.17 | 6.53 |  |
| YEDLRVLSF | 7.17 | 7.15 | 4.73 |  |  |  |  | pIC50 (HLA-B*1801): 7.70; pIC50 (HLA-B*4402): 7.62 |
| EYRHYQYSF |  |  |  | 4.86 | 6.37 | 8.64 | 7.68 |  |
